Reference: patent publication US20230079439A1, “Compositions and Methods for Enhancing Beta Cell Maturation, Health and Function” (THE REGENTS OF THE UNIVERSITY OF CALIFORNIA, priority 2016, published 2023)
Ends that are not written are not given here.

Experiments:
INS-1E cells [1] = assay: Cell counting (trypan blue) / proliferation and cluster formation; assay type: cell-based, rat; details: 24 h
Protocol: FIG. 7, comprising FIG. 7A through FIG. 7G, depicts the evaluation of the biological activity of HSA-28P in INS-1E cells. FIG. 7A depicts dose-response analysis of the effect of HSA-28P on the rate of insulin secretion in INS-1E cells. The INS-1E cells were grown and trypsinized as described in Methods. Subsequently, cells were mixed with the indicated concentrations of HSA-28P (red columns), non-relevant peptide nanoparticles (NRPNP, green columns), and naked nanoparticles (NP, blue columns) and were seeded in 12-well plates. After 24 h the cells were taken to a GSIS in the presence of 2.5 mM (weak color bars) or 16.7 mM (strong color bars) glucose. FIG. 7B depicts time-course analysis of the effect of HSA-28P on the rate of insulin secretion in INS-1E cells. The INS-1E cells were prepared for the experiment as described above with 1.34 μM of both HSA-28P or NRPNP, and 0.76 μg/ml of NP. After incubation for the time indicated in the graph, the cells were taken to a GSIS as described in Methods. FIG. 7C depicts the measurement of insulin content. The RIA-assay was performed for INS-1E lysates. […] INS-1E cells were treated as described in Panel D. Cells were detached by trypsin and counted as described in Methods and then were visualized with a Cells Sense Live Imaging microscope. […]
Cells were detached by trypsin and colored by Trypan blue. Only uncolored cells were counted. […]

INS-1E cells [2] = assay: Insulin secretion of INS-1E cells after 5 h incubation with peptidomimetic agent; assay type: cell-based, rat
Protocol: FIG. 22, comprising FIG. 22A through FIG. 22C, depicts experimental results of incubation of INS1E cells with peptidomimetic agent. A peptidomimetic agent was designed to mimic neuroligin's binding site for neurexin. Monomers and dimers had no effect on insulin secretion. Multiple dimers were conjugated to PEG-2000 to simulate clustering (reagent HSA-112). Dimers were also clustered on nanoparticles (HSA-637). FIG. 22A depicts INS-1E cells were incubated for 5 h with HSA-112 (blue columns) or HSA-637 (purple) at different concentrations or with vehicle alone (black), washed, and then tested for insulin secretion at 3 mM glucose (striped columns) or at 20 mM glucose (solid columns). […] FIG. 22B depicts a time course: insulin secretion was analyzed after the number of hours indicated following a 5 h incubation with 100 μM HSA-112 (blue), 500 nM HSA-637 (purple) or vehicle alone (black). Incubations were with 3 mM glucose (striped columns) or 20 mM glucose (solid columns). FIG. 22C depicts microscopy where INS-1E cells were incubated with HSA-637 conjugated to a fluorescent dye (Cy5, red) and then washed. Membranes were stained with Alexa Fluor 488 (green). For better visualization, microscopy was in hypotonic saline causing the INS-1E cells to swell and become more rounded.

HSA-112: HSA-28 dimer formed by bridging two HSA-28 monomers via amide bond formation with active ester PEG2,000 (QQGEFLNYD-NH2; not fully specified (N-terminus); also: dimer of two HSA-28 monomers bridged via amide bonds with active ester PEG2000)
amount of cells / proliferation rate (INS-1E cells [1]): higher than that in the control dishes | concentration that significantly increased glucose-stimulated insulin secretion (INS-1E cells [2]; 5 h incubation, 20 mM glucose, p<0.05): ≥ 20 µM | effect on insulin secretion (INS-1E cells [2]; INS-1 β cells): increased insulin secretion in a dose-dependent manner
